In patent US20120053148A1, “INHIBITORS OF HEPATITIS C VIRUS” (GILEAD SCIENCES, INC., priority 2010, published 2012):
Like-named read-outs stand apart in the source and are kept apart here.

Assays:
HCV Replicon IB = experiment: HCV replicon assay in Huh-7 cells, genotype 1b (Rluc luciferase readout); type: cell-based, hepatitis C virus; conditions: for EC50: read-out: EC50_HCV1B_
HCV Replicon IA = experiment: HCV replicon assay in Huh-7 cells, genotype 1a; type: cell-based; conditions: Hepatitis C virus, 72 h, Huh-7 HCV replicon cells, 3 days
[1] = Hepatitis C virus, 72 h, 10 μM, Huh-7 HCV replicon cells, 3 days, read-out: % inhibition @ 10 μM HCV Replicon IB
[2] = Hepatitis C virus, Huh-7, 72 h, read-out: Inhibition @ 10 uM in 1b-Rluc
[3] = Hepatitis C virus, Huh-7, 72 h, HCV1B replicon, Huh-7 cells, 3 days
[4] = Hepatitis C virus, 72 h, 10 uM, 1b-Rluc replicon, Huh-7 cells, 3 days, read-out: Inhibition @ 10 uM in 1b-Rluc

SMILES	EC50 (HCV Replicon IB; [3])	inhibition at 10 µM (HCV Replicon IB; [4])	also measured
O=C(NCc1ccc(Cl)s1)c1cc(O)c2cc(-c3cc[nH]n3)cc(C(F)(F)F)c2n1 [Compound 14]	–	–	inhibition at 10 µM (HCV Replicon IB; [1]): 68.6%; inhibition at 10 µM (HCV Replicon IA): 84.2%
O=C(NCc1cccs1)c1cc(O)c2cc(-c3cc[nH]n3)cc(C(F)(F)F)c2n1 [Compound 35]	–	–	inhibition at 10 µM (HCV Replicon IB; [1]): 94.5%; inhibition at 10 µM (HCV Replicon IA): 94.2%
C=Cc1cc(C(F)(F)F)c2nc(C(=O)NCc3ccccn3)cc(C)c2c1 [Compound 152]	–	–	inhibition at 10 µM (HCV Replicon IB; [2]): 99.9%
COC(C)(C)c1cc(C2CC2)cc2c(C)cc(-c3nnc(NCC4OCCO4)o3)nc12 [Compound 545]	7.68 nM	–	–
Nc1cc(C(=O)NCC2COCCN2)nc2c(C(F)(F)F)cc(C3CC3)cc12 (centres unmarked) [Compound 218]	–	99.9%	–
Cc1cc(C(=O)NCC2COCCN2)nc2c(C(F)(F)F)cc(C3CC3)cc12 (centres unmarked) [Compound 100]	–	99.5%	–
Cc1cc(-c2nnc(NCC(=O)N(C)C)o2)nc2c(C(F)(F)F)cc(C3CC3)cc12 [Compound 248]	–	99.9%	–
O=C(NCC1(O)CC1)c1cc(Cl)c2cc(C3CC3)cc(C(F)(F)F)c2n1 [Compound 211]	–	94.8%	–
Cc1cc(-c2nnc(NCCCCO)o2)nc2c(C(F)(F)F)cc(C3CC3)cc12 [Compound 258]	–	100%	–
Cc1cc(-c2nnc(N[C@H]3CC[C@@H](O)C3)o2)nc2c(C(C)(C)C)cc(OCC(F)(F)F)cc12 (racemic) [Compound 476]	1.32 nM	–	–
Cc1cc(-c2nnc(NCC3OCCO3)o2)nc2c(C(C)(C)C)cc(OC(F)F)cc12 [Compound 524]	1.25 nM	–	–
Cc1cc(-c2nnc(NCC3O[C@H]4COC[C@H]4O3)o2)nc2c(C(C)(C)C)cc(C3CC3)cc12 (some centres unmarked) [Compound 413]	311 nM	–	–
CCCC(=O)Nc1nnc(-c2cc(C)c3cc(C4CC4)cc(C(F)(F)F)c3n2)o1 [Compound 262]	–	99.7%	–
Cc1cc(-c2nnc(NS(C)(=O)=O)s2)nc2c(C(F)(F)F)cc(C3CC3)cc12 [Compound 289]	–	70.7%	–
Cc1cc(C(=O)NCc2cc(CN3CCOCC3)ccn2)nc2c(C(F)(F)F)cc(C3CC3)cc12 [Compound 130]	–	84.7%	–
Cc1cc(-c2nnc(N[C@H]3C[C@](O)(CF)C3)o2)nc2c(C(C)(C)C)cc(OCCF)cc12 [Compound 529]	1.37 nM	–	–
CC(C)(C)c1cc(C2CC2)cc2c(N)cc(C(=O)NC[C@@H]3CC4(CN3)SCCS4)nc12 [Compound 333]	6.32 nM	–	–
Cc1cc(-c2nnc(NCC3OCCO3)o2)nc2c(C(C)(C)C)cc(OCC(F)(F)F)cc12 [Compound 448]	1.57 nM	–	–
CC(C)(C)c1cc(C2CC2)cc2c(N)cc(-c3nnc(NCC(F)(F)F)o3)nc12 [Compound 345]	560 nM	–	–
Cc1cc(-c2nnc(Nc3cn[nH]c3)o2)nc2c(C(C)(C)C)cc(C3CC3)cc12 [Compound 400]	75.5 nM	–	–
Cc1cc(-c2nnc(NCC3OCCS3(=O)=O)o2)nc2c(C(C)(C)C)cc(OCC(F)(F)F)cc12 (centres unmarked) [Compound 483]	1.72 nM	–	–
Cc1cc(-c2nnc(NCC3OCCO3)o2)nc2c(C(C)(C)C)cc(OCC(F)(F)C(F)(F)F)cc12 [Compound 523]	233 nM	–	–
Cc1cc(C(=O)Nc2cn[nH]c2)nc2c(OC(F)(F)F)cc(C3CC3)cc12 [Compound 439]	1160 nM	–	–
COc1cc(C(F)(F)F)c2nc(-c3nnc(NCC4OCCO4)o3)cc(C)c2c1 [Compound 278]	–	99.9%	–

SMILES	EC50 (HCV Replicon IB; [3])	inhibition at 10 µM (HCV Replicon IB; [4])	also measured
Cc1cc(-c2nnc(NCC3OCCO3)o2)nc2c(S(C)(=O)=O)cc(C3CC3)cc12 [Compound 547]	185 nM	–	–
Cc1cc(C(=O)NC[C@H]2CC(F)(F)CN2)nc2c(C(F)(F)F)cc(C3CC3)cc12 [Compound 128]	–	99.4%	–
Cc1cc(C(=O)NC[C@@H]2CC3(CN2)OCCO3)nc2c(C(F)(F)F)cc(OCC(F)(F)F)cc12 [Compound 511]	32.3 nM	–	–
Cc1cc(-c2nnc(NCC3(CO)CC3)s2)nc2c(C(F)(F)F)cc(C3CC3)cc12 [Compound 306]	1410 nM	–	–
Cc1cc(C(=O)NCc2ccccn2)nc2c(C(F)(F)F)cc(C3=CCCC3)cc12 [Compound 149]	–	99.4%	–
Cc1cc(-c2nnc(N[C@H]3C[C@](O)(CO)C3)o2)nc2c(C(C)(C)C)cc(OCC(F)(F)F)cc12 [Compound 499]	16.8 nM	–	–
CC(C)(C)c1cc(C2CC2)cc2c(N)cc(C(=O)NCC3COC3)nc12 [Compound 337]	69.6 nM	–	–
CC(C)(C)c1cc(C2CC2)cc2c(N)cc(-c3nnc(NCCS(N)(=O)=O)o3)nc12 [Compound 351]	24.1 nM	–	–
Cc1cc(-c2nnc(N)s2)nc2c(C(F)(F)F)cc(C3CC3)cc12 [Compound 305]	–	96.6%	–
Cc1cc(-c2nnc(N[C@H]3CC[C@](O)(CF)C3)o2)nc2c(C(C)(C)C)cc(OCC(F)(F)F)cc12 [Compound 491]	0.57 nM	–	–
Cc1cc(-c2nnc(NC3CCC(O)(CF)C3)o2)nc2c(C(C)(C)C)cc(OCC(F)(F)F)cc12 (centres unmarked) [Compound 489]	26.7 nM	–	–
Cc1cc(-c2nnc(Nc3cccc(F)c3)o2)nc2c(C(F)(F)F)cc(C3CC3)cc12 [Compound 271]	–	–	inhibition at 10 µM (HCV Replicon IB; [2]): 100%
N#Cc1cc(C(=O)NCc2ccccn2)nc2c(C(F)(F)F)cc(C3CC3)cc12 [Compound 215]	–	99.4%	–
Cc1cc(C(=O)NC[C@@H]2CC(O)CN2)nc2c(C(F)(F)F)cc(OC(F)F)cc12 (some centres unmarked) [Compound 191]	–	50.2%	–
Cc1cc(-c2nnc(NCC(=O)N(C)C)o2)nc2c(C(C)(C)C)cc(OCC(F)(F)F)cc12 [Compound 453]	14.9 nM	–	–
Cc1cc(-c2nnc(NCC3OCCO3)o2)nc2c(C3(C)SCCS3)cc(C3CC3)cc12 [Compound 544]	46.7 nM	–	–
Cc1cc(-c2nnc(NCC[C@@H](C)O)o2)nc2c(C(C)(C)C)cc(OCC(F)(F)F)cc12 [Compound 455]	3.05 nM	–	–
CNc1cc(C(F)(F)F)c2nc(C(=O)NCc3ccccn3)cc(C)c2c1 [Compound 181]	–	99.4%	–
Cc1cc(-c2nnc(NC3CC(C)(OCS(C)(=O)=O)C3)o2)nc2c(C(C)(C)C)cc(OCC(F)(F)F)cc12 (centres unmarked) [Compound 495]	38.4 nM	–	–
Cc1cc(-c2nnc(NCc3ccn[nH]3)o2)nc2c(C(C)(C)C)cc(OCC(F)(F)F)cc12 [Compound 452]	19.6 nM	–	–
Cc1cc(-c2nnc(NCCC(C)O)s2)nc2c(C(F)(F)F)cc(C3CC3)cc12 (centres unmarked) [Compound 302]	–	99.9%	–
CCc1cc(C(F)(F)F)c2nc(C(=O)NCc3ccccn3)cc(C)c2c1 [Compound 158]	–	98.9%	–
Cc1cc(-c2nnc(NCCCN3CCCCC3)o2)nc2c(C(F)(F)F)cc(C3CC3)cc12 [Compound 256]	–	99.4%	–
CO[C@H]1CN[C@@H](CNC(=O)c2cc(N)c3cc(C4CC4)cc(C(C)(C)C)c3n2)C1 [Compound 327]	16.5 nM	–	–

SMILES	EC50 (HCV Replicon IB; [3])	inhibition at 10 µM (HCV Replicon IB; [4])	also measured
Cc1cc(-c2nnc(NCCCN3CCOCC3)s2)nc2c(C(F)(F)F)cc(C3CC3)cc12 [Compound 298]	–	88%	–
Cc1cccc(CNC(=O)c2cc(C)c3cc(C4CC4)cc(C(F)(F)F)c3n2)n1 [Compound 83]	–	99.4%	–
CC(C)(C)c1cc(C2CC2)cc2c(N)cc(C(=O)NCC3CS(=O)(=O)CCN3)nc12 (centres unmarked) [Compound 334]	–	–	EC50 (HCV Replicon IB; HCV1B replicon, Huh-7 cells, 3 days): 1.71 nM
CC(C)(C)c1cc(C2CC2)cc2c(N)cc(-c3nnc(NCC4CCCCO4)o3)nc12 (centres unmarked) [Compound 354]	15.3 nM	–	–
CO[C@H]1CN[C@H](CNC(=O)c2cc(N)c3cc(C4CC4)cc(C(C)(C)C)c3n2)C1 [Compound 323]	7 nM	–	–
Cc1cc(C(=O)NCc2ccccn2)nc2c(C(F)(F)F)cc(C3CC3(F)F)cc12 (centres unmarked) [Compound 154]	–	100%	–
Cc1cc(-c2nnc(NC3CNCC3O)o2)nc2c(C(C)(C)C)cc(C3CC3)cc12 (centres unmarked) [Compound 396]	1110 nM	–	–
Cc1cc(-c2nnc(NCC3OCCO3)o2)nc2c(C3(C)OCCO3)cc(C3CC3)cc12 [Compound 540]	36.6 nM	–	–
Cc1cc(C(=O)NCC2CC(F)(F)CN2)nc2c(OC(F)(F)F)cc(C3CC3)cc12 (centres unmarked) [Compound 437]	20.2 nM	–	–
Cc1cc(-c2nnc(N[C@H]3C[C@@H](O)C3)o2)nc2c(C(C)(C)C)cc(OCC(C)(C)O)cc12 [Compound 536]	–	–	EC50 (HCV Replicon IB; Hepatitis C virus, Huh-7, 72 h): 31.4 nM
CCCCNc1nnc(-c2cc(Cl)c3cc(C4CC4)cc(C(C)(C)C)c3n2)s1 [Compound 378]	48.9 nM	–	–
Cc1cc(-c2nnc(NC[C@H]3C[C@@H](O)C3)o2)nc2c(C(C)(C)C)cc(C3CC3)cc12 [Compound 417]	6.11 nM	–	–
Cc1cccnc1CNC(=O)c1cc(C)c2cc(C3CC3)cc(C(F)(F)F)c2n1 [Compound 84]	–	99%	–
Cc1cc(-c2nnc(NCC3OCCO3)o2)nc2c(OC(F)(F)F)cc(C3CC3)cc12 [Compound 444]	5.88 nM	–	–
Cc1cc(-c2nnc(N(CO)CC3OCCO3)o2)nc2c(C(C)(C)C)cc(C3CC3)cc12 [Compound 404]	2.18 nM	–	–
Cc1cc(-c2nnc(Nc3cn[nH]c3)s2)nc2c(C(C)(C)C)cc(C3CC3)cc12 [Compound 382]	14.2 nM	–	–
Cc1cc(-c2nnc(N[C@H]3C[C@@](O)(CO)C3)o2)nc2c(C(C)(C)C)cc(OCC(F)(F)F)cc12 [Compound 500]	7.57 nM	–	–
Cc1cc(C(=O)NCCC#N)nc2c(C(F)(F)F)cc(-c3ccccc3)cc12 [Compound 104]	–	70.3%	–
CC(C)(C)c1cc(C2CC2)cc2c(N)nc(C(=O)NCc3ncccn3)nc12 [Compound 433]	1.19 nM	–	–
CC(C)(C)c1cc(C2CC2)cc2c(Cl)cc(C(=O)NCc3ccccn3)nc12 [Compound 229]	–	100%	–
CCCNc1nnc(-c2cc(N)c3cc(C4CC4)cc(C(C)(C)C)c3n2)o1 [Compound 366]	2.01 nM	–	–
Cc1cc(-c2nnc(NCCO)s2)nc2c(C(F)(F)F)cc(C3CC3)cc12 [Compound 308]	66 nM	–	–
Cc1cc(C(=O)NCc2ccccn2)nc2c(C(F)(F)F)cc(C3CCCC3)cc12 [Compound 150]	–	99%	–
Cc1cc(-c2nnc(NCCCCCO)o2)nc2c(C(F)(F)F)cc(C3CC3)cc12 [Compound 259]	–	98.4%	–
